Experimental data: ChEMBL document CHEMBL6074654, “Inhibitors targeting the PWWP domain-containing proteins” (Eur J Med Chem, 2024)

Legend:
[1] = target: Histone-lysine N-methyltransferase, H3 lysine-36 specific (Homo sapiens, UniProt Q96L73); experiment: Inhibition of NSD1-SET (unknown origin)
U2OS = experiment: Antiproliferative activity against human U2OS cells
[2] = target: T1, Histone-lysine N-methyltransferase NSD2 (Homo sapiens, UniProt O96028); experiment: Inhibition of NSD2-SET domain (unknown origin)
T1 sequence (O96028 whole entry): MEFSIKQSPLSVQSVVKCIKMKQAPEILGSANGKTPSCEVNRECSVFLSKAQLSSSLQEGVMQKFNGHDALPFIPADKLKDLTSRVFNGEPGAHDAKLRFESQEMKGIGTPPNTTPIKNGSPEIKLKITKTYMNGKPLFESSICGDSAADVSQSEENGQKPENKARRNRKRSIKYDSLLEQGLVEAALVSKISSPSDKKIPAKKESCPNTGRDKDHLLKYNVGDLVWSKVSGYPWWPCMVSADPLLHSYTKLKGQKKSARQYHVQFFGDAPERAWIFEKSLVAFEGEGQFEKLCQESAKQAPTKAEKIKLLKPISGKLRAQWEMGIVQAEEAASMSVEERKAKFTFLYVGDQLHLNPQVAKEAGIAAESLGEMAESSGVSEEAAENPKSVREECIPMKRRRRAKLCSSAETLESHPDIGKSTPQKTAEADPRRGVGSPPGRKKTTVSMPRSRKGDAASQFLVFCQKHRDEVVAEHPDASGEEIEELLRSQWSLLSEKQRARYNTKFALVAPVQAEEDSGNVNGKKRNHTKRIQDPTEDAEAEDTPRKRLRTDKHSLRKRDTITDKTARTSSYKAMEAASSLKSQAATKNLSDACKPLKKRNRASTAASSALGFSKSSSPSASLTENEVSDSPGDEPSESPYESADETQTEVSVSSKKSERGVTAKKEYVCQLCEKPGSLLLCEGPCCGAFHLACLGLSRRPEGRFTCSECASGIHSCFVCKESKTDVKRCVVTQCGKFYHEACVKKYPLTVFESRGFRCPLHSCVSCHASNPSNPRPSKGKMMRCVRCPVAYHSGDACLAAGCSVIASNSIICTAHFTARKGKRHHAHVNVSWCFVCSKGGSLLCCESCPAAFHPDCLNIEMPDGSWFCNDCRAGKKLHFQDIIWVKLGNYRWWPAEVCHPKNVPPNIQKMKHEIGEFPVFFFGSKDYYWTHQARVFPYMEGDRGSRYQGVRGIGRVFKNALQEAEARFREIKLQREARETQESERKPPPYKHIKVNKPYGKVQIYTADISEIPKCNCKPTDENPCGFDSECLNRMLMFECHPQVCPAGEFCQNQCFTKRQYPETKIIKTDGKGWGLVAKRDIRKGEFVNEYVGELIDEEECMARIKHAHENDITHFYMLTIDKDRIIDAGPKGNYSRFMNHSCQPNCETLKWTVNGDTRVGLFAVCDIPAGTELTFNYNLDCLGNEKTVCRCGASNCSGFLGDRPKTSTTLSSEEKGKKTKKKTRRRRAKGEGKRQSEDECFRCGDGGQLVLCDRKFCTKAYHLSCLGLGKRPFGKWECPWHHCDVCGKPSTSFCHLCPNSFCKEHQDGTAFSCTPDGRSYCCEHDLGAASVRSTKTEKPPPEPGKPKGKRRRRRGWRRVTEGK

[3] = target: DNA (cytosine-5)-methyltransferase 3A (Homo sapiens, UniProt Q9Y6K1); experiment: Inhibition of DNMT3A (unknown origin)
[4] = target: DNA (cytosine-5)-methyltransferase 1 (Homo sapiens, UniProt P26358); experiment: Inhibition of DNMT1 (unknown origin)
[5] = target: Protein cereblon/Histone-lysine N-methyltransferase NSD2 (Homo sapiens, UniProt O96028+Q96SW2); experiment: PROTAC activity at CRBN/NSD2 in human VCaP cells assessed as induction of NSD2 degradation incubated for 24 hrs by immunoblot analysis; assay type: cell-based
Chain of Protein cereblon/Histone-lysine N-methyltransferase NSD2 (Q96SW2 whole entry, one chain of several): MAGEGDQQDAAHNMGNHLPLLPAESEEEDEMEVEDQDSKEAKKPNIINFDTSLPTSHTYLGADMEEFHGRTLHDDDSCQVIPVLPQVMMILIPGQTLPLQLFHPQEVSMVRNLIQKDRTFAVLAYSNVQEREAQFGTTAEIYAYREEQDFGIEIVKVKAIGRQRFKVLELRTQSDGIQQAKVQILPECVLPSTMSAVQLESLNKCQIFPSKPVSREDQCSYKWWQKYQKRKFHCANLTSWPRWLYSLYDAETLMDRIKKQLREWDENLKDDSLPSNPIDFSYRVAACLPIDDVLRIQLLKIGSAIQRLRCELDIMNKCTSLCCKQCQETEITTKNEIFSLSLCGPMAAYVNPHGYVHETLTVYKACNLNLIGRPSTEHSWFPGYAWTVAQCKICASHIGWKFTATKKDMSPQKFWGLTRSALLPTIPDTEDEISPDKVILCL

Chain of DNA (cytosine-5)-methyltransferase 3A (Q9Y6K1 whole entry, looked up): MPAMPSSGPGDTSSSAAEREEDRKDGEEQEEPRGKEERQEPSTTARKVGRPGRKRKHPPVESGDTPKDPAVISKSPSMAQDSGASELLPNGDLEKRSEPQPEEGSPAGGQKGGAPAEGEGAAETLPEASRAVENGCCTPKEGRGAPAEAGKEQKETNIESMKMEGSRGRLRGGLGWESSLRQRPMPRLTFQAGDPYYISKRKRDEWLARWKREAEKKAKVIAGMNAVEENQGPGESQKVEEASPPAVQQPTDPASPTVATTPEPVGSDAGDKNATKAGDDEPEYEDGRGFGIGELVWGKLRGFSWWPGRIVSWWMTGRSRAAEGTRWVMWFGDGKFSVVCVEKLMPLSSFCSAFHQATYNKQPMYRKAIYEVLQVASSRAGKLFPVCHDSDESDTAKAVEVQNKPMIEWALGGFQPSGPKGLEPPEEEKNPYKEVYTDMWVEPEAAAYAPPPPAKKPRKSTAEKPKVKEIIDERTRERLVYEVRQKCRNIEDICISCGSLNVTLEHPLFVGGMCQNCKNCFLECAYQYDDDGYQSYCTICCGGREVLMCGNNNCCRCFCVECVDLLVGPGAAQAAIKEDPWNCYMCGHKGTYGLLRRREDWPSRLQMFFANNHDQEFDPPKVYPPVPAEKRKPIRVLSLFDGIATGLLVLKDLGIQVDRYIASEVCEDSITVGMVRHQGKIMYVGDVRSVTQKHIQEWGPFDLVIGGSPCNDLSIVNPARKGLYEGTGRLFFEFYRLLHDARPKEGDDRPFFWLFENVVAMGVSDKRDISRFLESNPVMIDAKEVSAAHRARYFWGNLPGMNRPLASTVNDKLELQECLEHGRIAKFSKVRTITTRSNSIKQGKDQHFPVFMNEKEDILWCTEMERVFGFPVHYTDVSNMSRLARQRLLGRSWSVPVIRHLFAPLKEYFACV
Chain of DNA (cytosine-5)-methyltransferase 1 (P26358 whole entry): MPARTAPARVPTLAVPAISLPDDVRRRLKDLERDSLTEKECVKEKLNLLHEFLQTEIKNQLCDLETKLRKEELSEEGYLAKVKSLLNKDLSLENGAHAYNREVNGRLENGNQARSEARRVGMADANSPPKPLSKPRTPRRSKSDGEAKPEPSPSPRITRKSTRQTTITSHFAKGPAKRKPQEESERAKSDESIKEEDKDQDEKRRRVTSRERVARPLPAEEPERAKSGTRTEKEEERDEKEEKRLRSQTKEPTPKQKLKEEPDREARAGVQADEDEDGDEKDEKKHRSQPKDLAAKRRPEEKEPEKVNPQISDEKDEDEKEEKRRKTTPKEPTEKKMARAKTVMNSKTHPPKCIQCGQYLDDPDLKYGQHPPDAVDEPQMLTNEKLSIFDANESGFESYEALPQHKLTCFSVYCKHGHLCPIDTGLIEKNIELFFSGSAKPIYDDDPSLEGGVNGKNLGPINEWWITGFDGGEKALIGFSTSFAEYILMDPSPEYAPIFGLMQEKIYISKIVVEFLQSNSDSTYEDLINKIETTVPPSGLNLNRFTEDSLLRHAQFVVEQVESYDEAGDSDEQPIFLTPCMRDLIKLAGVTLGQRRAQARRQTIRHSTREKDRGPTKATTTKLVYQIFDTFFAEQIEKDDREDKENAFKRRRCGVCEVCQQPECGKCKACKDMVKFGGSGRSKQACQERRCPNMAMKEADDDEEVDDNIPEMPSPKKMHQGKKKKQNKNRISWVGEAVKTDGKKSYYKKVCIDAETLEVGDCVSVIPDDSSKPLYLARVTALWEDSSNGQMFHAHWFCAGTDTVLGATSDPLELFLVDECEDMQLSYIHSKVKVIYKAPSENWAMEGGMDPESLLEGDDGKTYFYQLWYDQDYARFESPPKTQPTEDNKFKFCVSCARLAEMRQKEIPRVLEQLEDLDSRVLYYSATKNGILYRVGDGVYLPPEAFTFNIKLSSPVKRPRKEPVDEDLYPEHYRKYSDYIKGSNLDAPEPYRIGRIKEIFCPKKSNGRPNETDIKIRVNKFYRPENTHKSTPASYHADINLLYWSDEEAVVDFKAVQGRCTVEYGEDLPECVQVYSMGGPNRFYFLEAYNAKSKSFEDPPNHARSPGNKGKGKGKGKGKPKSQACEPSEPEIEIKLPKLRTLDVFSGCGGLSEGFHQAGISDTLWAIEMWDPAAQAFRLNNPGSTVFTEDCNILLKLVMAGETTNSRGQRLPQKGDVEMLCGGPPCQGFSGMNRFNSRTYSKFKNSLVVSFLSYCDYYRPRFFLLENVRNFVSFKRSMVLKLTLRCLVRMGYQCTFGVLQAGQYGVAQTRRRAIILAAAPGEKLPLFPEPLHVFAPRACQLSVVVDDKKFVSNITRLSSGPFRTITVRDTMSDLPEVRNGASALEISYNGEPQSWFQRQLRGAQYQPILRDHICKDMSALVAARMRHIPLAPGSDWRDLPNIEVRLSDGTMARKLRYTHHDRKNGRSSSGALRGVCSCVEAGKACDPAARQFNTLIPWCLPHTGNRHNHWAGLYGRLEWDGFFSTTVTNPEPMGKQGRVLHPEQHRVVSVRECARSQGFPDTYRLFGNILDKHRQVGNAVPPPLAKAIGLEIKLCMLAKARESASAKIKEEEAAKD

| Structure (SMILES) | IC50 [3] [µM] | IC50 [1] [µM] | further results |
| --- | --- | --- | --- |
| O=C1C=CC(=O)c2ccccc21 [NAPHTHOQUINONE] | – | 2 | – |
| O=C1COc2cc(C(=O)N(Cc3ccc(C(=O)Nc4ccncn4)cc3)C3CC3)ccc2N1 | – | – | IC50 (U2OS): 1.2 µM |
| COc1cc(NC(C)CCCN)c2ncccc2c1 (configuration not stated) [PRIMAQUINE] | – | 1.8 | – |
| CCCN[C@@H](CC[C@H](N)C(=O)O)C[C@@H]1O[C@@H](n2cnc3c(N)ncnc32)[C@H](O)[C@@H]1O | – | – | IC50 [2]: 3.3 µM |
| CN1C[C@H](C(=O)N[C@]2(C)C[C@@]3(O)C4CCCN4C(=O)[C@H](Cc4ccccc4)N3C2=O)C=C2c3cccc4[nH]cc(c34)C[C@H]21 (some centres not stated) | – | 5.9 | – |
| Cc1cc(/C=C/c2ccc3cc(N(C)C)ccc3[n+]2C)c(C)n1-c1ccccc1 | – | 2.6 | – |
| Cc1coc2c1C(=O)C(=O)c1c-2ccc2c(C)cccc12 [TANSHINONE I] | – | 3.1 | – |
| O=C(O)c1ccccc1-c1c2cc(I)c(=O)c(I)c-2oc2c(I)c(O)c(I)cc12 | – | 0.34 | – |
| CC1=CC(=O)c2c(O)cccc2C1=O [PLUMBAGIN] | – | 5.7 | – |
| c1ccc2c(NCCNc3ncnc4cc(OCC5CCN(CCNc6ccnc7ccccc67)CC5)ccc34)cccc2c1 | 0.3 | – | IC50 [4]: 20 µM |
| C[C@H]1COC2=C1C(=O)C(=O)c1c2ccc2c1CCCC2(C)C [CRYPTOTANSHINONE] | – | 3.5 | – |
| CC(C)C[C@H]1C(=O)N2CCCC2[C@]2(O)O[C@](NC(=O)[C@@H]3C=C4c5cccc6[nH]cc(c56)CC4N(C)C3)(C(C)C)C(=O)N12 (some centres not stated) | – | 4.9 | – |
| N=C(N)NCCC[C@H](N)C(=O)NCCCCCCNC(=O)c1ccc(NC(=O)c2ccc(CN(C(=O)c3ccc4c(c3)OCC(=O)N4)C3CC3)cc2)cc1 | – | – | DC50 [5]: 1.2 µM |
| Cc1coc2c1C(=O)C(=O)c1c-2ccc2c1CCCC2(C)C [TANSHINONE IIA] | – | 1.4 | – |
| Oc1cc(/C=N/Nc2nc3ccccc3s2)cc(O)c1O | 1.6 | – | – |

The next lines start with results.

| IC50 [3] [µM] | Structure (SMILES) | IC50 [1] [µM] | further results |
| --- | --- | --- | --- |
| 36 | COc1ccc(Cl)cc1C(=O)NCCc1ccc(O)cc1 | – | – |
| 3.2 | O=C1C=CC(=O)N1CCc1c[nH]c2ccccc12 | – | IC50 [4]: 19 µM |
| 28 | O=C(O)C(Cc1c[nH]c2ccccc12)N1C(=O)C=CC1=O (configuration not stated) | – | – |
| 8.2 | CCN(CC)CCNC(=O)c1ccc(NCCCCCCCCCCCCN2C(=O)c3ccccc3C2=O)cc1 | – | IC50 [4]: 4.9 µM |
